Values quoted from earlier work as cited in patent publication US9303023B2, “Pyrazole and imidazole derivatives useful as orexin antagonists” (ACTELION PHARMACEUTICALS LTD., priority 2011, dated 2016).

Columns and labels:
[1] = rat model
[2] = rat fear-potentiated startle paradigm
amyloid-beta (Aβ) = conditions: after acute sleep restriction, amyloid precursor protein transgenic mice
[3] = rat
[4] = fasted hungry rats exposed to food odors
[5] = mouse model of depression, administered chronically
[6] = in vivo

| SMILES | memory function [1] | activity in conditioned fear model [2] | brain levels of amyloid-beta (Aβ) and Aβ plaque deposition (amyloid-beta (Aβ)) | alertness (active wake and locomotion) [3] | time spent in both REM and NREM sleep [3] | natural activation induced by orexin A [4] | antidepressant-like activity [5] | activity in animal model related to addictions [6] |
| --- | --- | --- | --- | --- | --- | --- | --- | --- |
| CNC(=O)[C@@H](c1ccccc1)N1CCc2cc(OC)c(OC)cc2[C@@H]1CCc1ccc(C(F)(F)F)cc1 [(2R)-2-{(1S)-6,7-dimethoxy-1-[2-(4-trifluoromethyl-phenyl)-ethyl]-3,4-dihydro-1H-isoquinolin-2-yl}-N-methyl-2-phenyl-acetamide] | enhance memory function | active | decreased | decrease alertness | dose-dependently increase | attenuate the natural activation induced by orexin A | induce antidepressant-like activity |  |
| COc1ccc(C[C@H]2c3cc(OC)c(OC)cc3CCN2[C@@H](C(=O)NC(C)C)c2ccccc2)cc1OC [(R)-2-[(S)-1-(3,4-Dimethoxy-benzyl)-6,7-dimethoxy-3,4-dihydro-1H-isoquinolin-2-yl]-N-isopropyl-2-phenyl-acetamide] |  | active |  |  |  |  |  | active |
